Reference: patent US20050106558A1, “Library of modified structural genes or capsid modified particles useful for the identification of viral clones with desired cell tropism” (priority 2001, published 2005)

What was measured:
[1] = target: integrin receptor expressed on the surface of the target cells; experiment: cell-based or functional assay
[2] = test system: M-07e cells; experiment: Transduction efficiency of rAAV-GFP clones on M-07e cells (FACS), with or without competitors; type: cell-based, human
Experimental: Cells were seeded in 96 or 24 well plates (Nunc, Wiesbaden, Germany) and infected with rAAV-GFP clones, harvested 48 hrs p.i., washed and resuspended in 1 ml PBS. The percentage of GFP expressing cells was determined by flow cytometry with a Coulter Epics XL-MCL (Beckman Coulter, Krefeld, Germany). A minimum of 5000 cells were analyzed for each sample. Infectivity of the retargeted mutants was determined in the presence or absence of various concentrations of GRGDTP or GRGES peptides (Bachem, Bubendorf, Swiss) or 5 I.U./[II soluble heparin (Braun, Melsungen, Germany).
The selected capsid mutants were tested for their ability to transduce M-07e cells (FIG. 5a). At a genomic particle/cell ratio of 2×10^4, the mutants rAAV-M07A and rAAV-M07T transduced 50±2.5% and 47±2.7% of M-07e cells, respectively, representing a 100 and 94 fold increase in comparison to rAAV-wt transduction efficiency (0.5±0.01%). In contrast, rAAV-MecA and rAAV-MecB transduced M-07e cells with an efficiency of only 8.1±1.5% and 16±2%. The vector rAAV-L14, carrying an RGD motif inserted at position 587 (Girod A et al (1999) supra), was also compared. […] This highlighted the advantage of the combinatorial approach when compared with the simple insertion of an exogenous sequence.
We then examined whether the transduction of M-07e cells by rAAV-M07A and rAAV-M07T vectors was specifically mediated by the amino acids inserted at position 587. In the capsid of wt AAV, the region around position 587 is involved in the binding to heparan sulfate proteoglycan (HSPG) (Nicklin S A et al. (2001) Mol. Ther. 4, 174-81; Wu P. et al. (2000) J. Virol. 74, 8635-47), the primary receptor of AAV-2 (Summerford C and Samulski J (1998) J. Virol. 72, 1438-45). Pre-incubation with soluble heparin, an HSPG analogue and competitor, inhibited transduction of M-07e cells by rAAV-MecB but not by rAAV-M07A, rAAV-M07T and rAAV-MecA (FIG. 5a). […] This effect was concentration-dependent (FIG. 5b). […]

rAAV-M07A (RGDAVGV insertion) (from UniProt P03135 1-587; P03135 588-735)
reduction of M07e cell transduction after incubation of the cells with 100 uM RGDS peptide [1]: > 50%

GRGES
effect of inactive GRGES peptide on transduction ([2]; M-07e cells, 450 μM): no effect

rAAV-M07T (RGDTPTS insertion) (from UniProt P03135 1-587; P03135 588-735)
reduction of M07e cell transduction after incubation of the cells with 100 uM RGDS peptide [1]: > 50%

RGES
effect of RGES peptide pre-incubation on infection ([2]; M07e cells): failed to inhibit

RGDS
reduction of transduction efficiencies by competing RGDS peptide ([2]; M07e cells incubated with 100 uM peptide prior to infection): more than 50%
